Results: patent US9890138B2, “Diaminopyrimidine derivatives and processes for the preparation thereof” (YUHAN CORPORATION, priority 2011, dated 2018)
Counter-ions that a name gives are not always drawn.

The compounds below were run against T1, human 5-HT4(a) (Homo sapiens, UniProt Q13639) (assay: Evaluation of agonistic activity in CHO-K1 cells expressing human 5-HT4(a) (GeneBlAzer HTR4-CRE-bla CHO-K1, beta-lactamase reporter)). Details: CHO-K1 cells stably expressing human 5-HT4(a).
T1 construct: host or cells: GeneBlAzer HTR4-CRE-bla CHO-K1 cells
T1 sequence (Q13639 1-387 isoform Q13639-2): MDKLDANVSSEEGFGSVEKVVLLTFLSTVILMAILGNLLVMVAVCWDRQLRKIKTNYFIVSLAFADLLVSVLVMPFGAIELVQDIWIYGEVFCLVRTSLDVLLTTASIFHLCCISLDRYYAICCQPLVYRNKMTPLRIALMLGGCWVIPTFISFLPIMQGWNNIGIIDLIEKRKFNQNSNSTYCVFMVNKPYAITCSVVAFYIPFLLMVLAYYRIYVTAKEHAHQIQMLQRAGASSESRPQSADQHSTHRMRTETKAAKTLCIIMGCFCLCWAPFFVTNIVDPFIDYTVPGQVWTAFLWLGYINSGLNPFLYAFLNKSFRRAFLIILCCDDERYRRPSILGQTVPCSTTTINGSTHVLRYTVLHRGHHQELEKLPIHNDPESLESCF
Type: cell-based
Procedure: Test Example 1: Evaluation of Agonistic Activity in CHO-K1 Cells Expressing Human 5-HT4(a)
As CHO-K1 cells stably expressing human 5-HT4(a), we used the GeneBlAzer HTR4-CRE-bla CHO-K1 cells (Invitrogen Corp.). The cells were cultured, under the condition of 37[…] and 5% CO2, in a DMEM supplemented with 10% fetal bovine serum (FBS), 25 mM HEPES (pH7.4), 600 μg/ml hygromycin B, 0.1 mM non-essential amino acids, 100 unit/ml penicillin and 100 μg/ml streptomycin. Subcultures were performed three times per one week, each being at less than 80% confluence. At the previous day before treating test compounds, the cells were collected using 0.5% trypsin/EDTA and then diluted with a DMEM supplemented with 1% FBS, 25 mM HEPES, and 0.1 mM non-essential amino acids into 3.125×10^5 cells/ml. 32 μl of the diluted cells were added into 384-well plate (10^4 cells per well) and then incubated overnight. After the overnight culture, 8 μl of the medium having 1% of DMSO was added into the cell-free control well and the non-stimulating control well, respectively. 8 μl of the respective test compound dilutions (which had been prepared by diluting by 100-times with the medium as mentioned in the above) having 1% of DMSO were added to the respective remaining wells. After being cultured in the incubator for 5 hours, the wells of the 384-plate were treated with the substrate solution (8 μl per well) prepared according to the vendor's instruction (i.e., Invitrogen's instruction), and then incubated in the dark room for additional two hours. Agonistic activities on 5-HT4 receptor were evaluated, on the basis of fluorescence values of the cleavage-products by beta-lactamase. After exciting to 410 nm of wavelength using a fluorescence detector (Genios Pro), we measured the fluorescence values at two emission wavelengths (first wavelength: 465 nm, second wavelength: 535 nm). Data were analyzed on the basis of the ratio of fluorescence intensities of each well at the respective wavelengths. Each EC50 value was calculated by non-linear regression analysis using the “GraphPad Prism” program, based on the activities according to 8-different concentrations of the test compounds.

| Compound | EC50 |
| --- | --- |
| CCCc1cc(N2CC[C@H](NCCCSC)C2)nc(Nc2cccc(C#N)c2)n1 [Example 117, (S)-3-(4-{3-[3-(methylthio)propylamino]pyrrolidin-1-yl}-6-propylpyrimidin-2-ylamino)benzonitrile] | 0.014 nM |
| CCCCCC(=O)N[C@H]1CCN(c2cc(CCC)nc(Nc3cccc(C#N)c3)n2)C1 [Example 150, (S)-N-{1-[2-(3-cyanophenylamino)-6-propylpyrimidin-4-yl]pyrrolidin-3-yl}hexanamide] | 0.41 nM |
| CCCc1cc(N2CC[C@H](N)C2)nc(Nc2ccc3cc[nH]c3c2)n1 [Example 346] | 0.014 nM |
| CCCc1cc(N2CC[C@H](NCC3CC3)C2)nc(Nc2ccc(F)c(C#N)c2)n1 [Example 376, (S)-5-{4-[3-(cyclopropylmethylamino)pyrrolidin-1-yl]-6-propylpyrimidin-2-ylamino}-2-fluorobenzonitrile] | 0.0037 nM |
| CCCc1cc(N2CC[C@H](NC3CCCC3)C2)nc(Nc2cccc(C#N)c2)n1 [Example 143] | 0.0066 nM |
| (S)-3-amino-5-[4-(3-aminopyrrolidin-1-yl)-6-propylpyrimidin-2-amino]benzonitrile [Example 362] | 0.0021 nM |
| CCCCN1CCC(N[C@H]2CCN(c3cc(CCC)nc(Nc4cccc(C#N)c4)n3)C2)CC1 [Example 222] | 0.082 nM |
| CCCc1cc(N2CC[C@H](N)C2)nc(Nc2ccc(F)c(C#N)c2)n1 [Example 353, (S)-5-[4-(3-aminopyrrolidin-1-yl)-6-propylpyrimidin-2-ylamino]-2-fluorobenzonitrile dihydrochloride] | 0.01 nM |
| CCCc1cc(N2CC[C@H](NCC(C)C)C2)nc(Nc2cccc(C#N)c2)n1 [Example 96, (S)-3-{4-[3-(isobutylamino)pyrrolidin-1-yl]-6-propylpyrimidin-2-ylamino}benzonitrile] | 0.017 nM |
| CCCc1cc(N2CC[C@H](NC(=O)CO)C2)nc(Nc2cccc(C#N)c2)n1 [Example 157, (S)-N-{1-[2-(3-cyanophenylamino)-6-propylpyrimidin-4-yl]pyrrolidin-3-yl}-2-hydroxyacetamide] | 0.044 nM |
| CCCc1cc(N2CC[C@H](NC(=O)CCc3ccccc3)C2)nc(Nc2cccc(C#N)c2)n1 [Example 151, (S)-N-{1-[2-(3-cyanophenylamino)-6-propylpyrimidin-4-yl]pyrrolidin-3-yl}-3-phenylpropanamide] | 0.334 nM |
| CCCc1cc(N2CCC[C@H]2C)nc(Nc2ccc(OC)c(N)c2)n1 [Example 331] | 0.138 nM |
| CCCc1cc(N2CC[C@H](NCc3ccncc3)C2)nc(Nc2cccc(C#N)c2)n1 [Example 103, (S)-3-{4-propyl-6-[3-(pyridin-4-ylmethylamino)pyrrolidin-1-yl]pyrimidin-2-ylamino}benzonitrile] | 0.067 nM |
| CCCc1cc(N2CC[C@H](NC(=O)CC)C2)nc(Nc2cccc(C#N)c2)n1 [Example 146, (S)-N-{1-[2-(3-cyanophenylamino)-6-propylpyrimidin-4-yl]pyrrolidin-3-yl}propionamide] | 0.084 nM |
| CCCc1cc(N2CCC(NCC)C2)nc(Nc2ccc(F)cc2)n1 (centres unmarked) [Example 13, 4-[3-(ethylamino)pyrrolidin-1-yl]-N-(4-fluorophenyl)-6-propylpyrimidin-2-amine] | 0.12 nM |
| CCCc1cc(N2CC[C@H](CNC(=O)OC(C)(C)C)C2)nc(Nc2cccc(C#N)c2)n1 [Example 56, (R)-tert-butyl{1-[2-(3-cyanophenylamino)-6-propylpyrimidin-4-yl]pyrrolidin-3-yl}methylcarbamate] | 0.312 nM |
| CCCc1cc(N2CC[C@H](NC(=O)C(C)(C)O)C2)nc(Nc2cccc(C#N)c2)n1 [Example 153, (S)-N-{1-[2-(3-cyanophenylamino)-6-propylpyrimidin-4-yl]pyrrolidin-3-yl}-2-hydroxy-2-methylpropanamide] | 0.228 nM |

| Compound | EC50 |
| --- | --- |
| CCCc1cc(N2CC[C@H](NC3CCCCC3)C2)nc(Nc2cccc(C#N)c2)n1 [Example 135, (S)-3-{4-[3-(cyclohexylamino)pyrrolidin-1-yl]-6-propylpyrimidin-2-ylamino}benzonitrile] | 0.011 nM |
| CCCc1cc(N2CCC[C@H]2CO)nc(Nc2ccc(C)c(C#N)c2)n1 [Example 213] | 0.017 nM |
| CCCc1cc(N2CC[C@H](NC(=O)COCc3ccccc3)C2)nc(Nc2cccc(C#N)c2)n1 [Example 158] | 0.436 nM |
| CCCc1cc(N2CC[C@H](N)C2)nc(Nc2ccc(C)c(Cl)c2)n1 [Example 349, (S)-4-(3-aminopyrrolidin-1-yl)-N-(3-chloro-4-methylphenyl)-6-propylpyrimidin-2-amine dihydrochloride] | 0.016 nM |
| CCCc1cc(N2CCC[C@H]2C)nc(Nc2ccc(C)c(N)c2)n1 [Example 334] | 0.085 nM |
| CCCc1cc(N2CC[C@H](N)C2)nc(Nc2ccc(C)c(N)c2)n1 [Example 369] | 0.049 nM |
| CCCCc1cc(N2CCC[C@H]2C)nc(Nc2ccc(C)c(C#N)c2)n1 [Example 230] | 0.047 nM |
| CCCc1cc(N2CCC[C@H]2C)nc(Nc2cccc(SC)c2)n1 [Example 314] | 0.18 nM |
| CCCc1cc(N2CC[C@H](NC)C2)nc(Nc2ccc(F)c(C#N)c2)n1 [Example 180] | 0.0087 nM |
| CCCC(=O)N[C@H]1CCN(c2cc(CCC)nc(Nc3cccc(C#N)c3)n2)C1 [Example 61, (S)-N-{1-[2-(3-cyanophenylamino)-6-propylpyrimidin-4-yl]pyrrolidin-3-yl}butyramide] | 0.15 nM |
| CCCc1cc(N2CCC(NC(C)=O)C2)nc(Nc2ccc(C)c(Cl)c2)n1 (centres unmarked) [Example 304] | 0.07 nM |
| CCCc1cc(N2CC[C@H](NC(C)CC)C2)nc(Nc2cccc(C#N)c2)n1 (stereo partly drawn) [Example 127, 3-{4-[(3S)-3-(sec-butylamino)pyrrolidin-1-yl]-6-propylpyrimidin-2-ylamino}benzonitrile] | 0.0062 nM |
| CCCCc1cc(N2CC[C@H](NC)C2)nc(Nc2ccc(C)c(C#N)c2)n1 [Example 231] | 0.0067 nM |
| CCCc1cc(N2CC[C@H](NCC3CC3)C2)nc(Nc2ccc(C)c(Cl)c2)n1 [Example 381] | 0.0043 nM |
| CCCc1cc(N2CC[C@H](NC(=O)CN3CCCCC3)C2)nc(Nc2cccc(C#N)c2)n1 [Example 71, (S)-N-{1-[2-(3-cyanophenylamino)-6-propylpyrimidin-4-yl]pyrrolidin-3-yl}-2-(piperidin-1-yl)acetamide] | 0.25 nM |
| CCCc1cc(N2CC[C@H](NCc3ccc(N(C)C)cc3)C2)nc(Nc2cccc(C#N)c2)n1 [Example 110, (S)-3-(4-{3-[4-(dimethylamino)benzylamino]pyrrolidin-1-yl}-6-propylpyrimidin-2-ylamino)benzonitrile] | 0.018 nM |
| CCCc1cc(N2CC[C@H](NC(C)=O)C2)nc(Nc2ccc(C)c(Cl)c2)n1 [Example 246] | 0.04 nM |

Further lines, results first:

| EC50 | Compound |
| --- | --- |
| 0.0014 nM | CCCc1cc(N2CC[C@H](NC)C2)nc(Nc2ccc(N)c(C#N)c2)n1 [Example 486] |
| 0.0058 nM | CCCc1cc(N2CC[C@H](NC)C2)nc(Nc2ccc(F)c(N)c2)n1 [Example 484] |
| 0.0051 nM | CCCc1cc(N2CC[C@H](NCC3CC3)C2)nc(Nc2ccc(F)c(C(F)(F)F)c2)n1 [Example 382] |
| 0.024 nM | CCCc1cc(N2CC[C@H](NC(=O)CO)C2)nc(Nc2ccc(F)c(N)c2)n1 [Example 478] |
| 0.003 nM | CCCCc1cc(N2CC[C@H](NC)C2)nc(Nc2ccc(Cl)c(N)c2)n1 [Example 457] |
| 0.13 nM | CCCc1cc(N2CCC[C@H]2CO)nc(Nc2ccc(C)c(N)c2)n1 [Example 399] |
| 0.0015 nM | CCCc1cc(N2CC[C@H](NCC)C2)nc(Nc2ccc(N)c(C#N)c2)n1 [Example 489] |
| 0.073 nM | CCCc1cc(N2CCC[C@H]2CO)nc(Nc2ccc(Cl)c(N)c2)n1 [Example 401] |
| 0.041 nM | CCCCc1cc(N2CC[C@H](NC(C)=O)C2)nc(Nc2ccc(F)c(C(F)(F)F)c2)n1 [Example 442] |
| 0.015 nM | CCCCc1cc(N2CC[C@H](NC(C)=O)C2)nc(Nc2ccc(Cl)c([N+](=O)[O-])c2)n1 [Example 438] |
| 0.0074 nM | CCCc1cc(N2CC[C@H](NCc3ccc[nH]3)C2)nc(Nc2ccc(C)c(C#N)c2)n1 [Example 416] |
| 0.0057 nM | CCCc1cc(N2CC[C@H](NCC3CC3)C2)nc(Nc2ccc(C)c(N)c2)n1 [Example 383] |
| 0.024 nM | CCCc1cc(N2CC[C@H](NC(=O)CN3CCCCC3)C2)nc(Nc2ccc(C)c(C#N)c2)n1 [Example 427] |
| 0.019 nM | CCCCc1cc(N2CC[C@H](NC(C)=O)C2)nc(Nc2ccc(C)c(C#N)c2)n1 [Example 492, (S)-N-{1-[6-butyl-2-(3-cyano-4-methylphenylamino)pyrimidin-4-yl]pyrrolidin-3-yl}acetamide hydrochloride] |
| 0.0034 nM | CCCN[C@H]1CCN(c2cc(CCC)nc(Nc3ccc(C)c(C#N)c3)n2)C1 [Example 414] |
| 0.012 nM | CCCCc1cc(N2CC[C@H](NC(C)=O)C2)nc(Nc2ccc(F)c(N)c2)n1 [Example 444] |
